This is an account of results in publication PMC11335985, “Radiosynthesis and preclinical evaluation of a ^68Ga-labeled tetrahydroisoquinoline-based ligand for PET imaging of C-X-C chemokine receptor type 4 in an animal model of glioblastoma” (EJNMMI Radiopharmacy and Chemistry, 2024).

For this assay, the target named is T1, CXCR4 (Homo sapiens, UniProt P61073).
T1 construct: full-length endogenous receptor on intact Jurkat T cells, untagged
Briefly: inhibition of CXCL12-AF647 binding to intact Jurkat cells, flow cytometry. In kind it is cell-based. Particulars: competition with 2.9 nM CXCL12-AF647; HBSS, 20 mM HEPES, 0.2% BSA, pH 7.4, RT; 15 min preincubation, 30 min with tracer; n = 3; chelator without gallium. From the text: inhibition of CXCL12-AF647 binding to intact Jurkat cells, flow cytometry on CXCR4
On the technique in general: A flow cytometer gives signals particle by particle.

T1 sequence (P61073 whole entry): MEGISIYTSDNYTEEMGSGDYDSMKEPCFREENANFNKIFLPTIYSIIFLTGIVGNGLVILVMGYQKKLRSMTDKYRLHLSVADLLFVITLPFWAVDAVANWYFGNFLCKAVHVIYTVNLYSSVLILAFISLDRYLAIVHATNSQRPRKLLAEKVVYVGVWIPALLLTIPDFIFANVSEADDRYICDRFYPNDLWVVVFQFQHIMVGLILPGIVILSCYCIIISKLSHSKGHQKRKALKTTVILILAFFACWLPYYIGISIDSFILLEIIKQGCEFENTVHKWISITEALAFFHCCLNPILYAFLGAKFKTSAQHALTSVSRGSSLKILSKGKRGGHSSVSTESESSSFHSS

`O=C(O)CN1CCN(CC(=O)O)CCN(C(CCC(=O)NCc2ccc(NC(=S)NCCCCN(C[C@H]3Cc4ccccc4CN3)[C@H]3CCCc4cccnc43)cc2)C(=O)O)CCN(CC(=O)O)CC1` (stereo partly shown) [TD-01]: the concentration for half-maximal inhibition (IC50) (as a rule, the concentration needed to halve the response being measured) stood at 36.5 ± 1.4 nM.
